We go through one compound from article PMC10892984, “Novel Antineoplastic Inducers of Mitochondrial Apoptosis in Human Cancer Cells” (Molecules, 2024).

Data set [1] has as its system HIV-1LAI. Put plainly: HIV-1LAI replication reverse transcriptase assay in primary PBM cells. It counts as cell-based, human immunodeficiency virus type 1. On the procedure:
(§1) The cytotoxicity and human immunodeficiency virus type 1 (HIV-1) strain LAI replication assays were performed in freshly explanted primary human peripheral blood mononuclear cells (PBM cells) according to published procedures. The assays were conducted at least in triplicate and treated statistically (if possible). HIV-1LAI (= HIV-1BRU = LAV-1) was assayed in primary human peripheral blood lymphocyte (PBL) cells in the presence of a drug being evaluated. The parameter for antiviral activity was a reduction in reverse transcriptase (RT) activity in the cell supernatant after Triton X–100-mediated lysis of released virions, as measured using [5α-^3H]dTTP (5α-tritiated thymidine 5′-triphosphate) incorporation into poly(rA)•poly(dT) directed by the primed RNA template poly(rA)•oligo(dT). […] The detailed assay methodology was reported by Schinazi et al. as based on an older assay system of Spira et al.. The experiments were conducted in triplicate and treated statistically using regression curve analysis (r^2 coefficient of determination). The RT inhibitor AZT (zidovudine, 3′-azido-3′-deoxythymidine; RETROVIR™) served as a positive control. Cytotoxicity on PBL and the other cells (CCRF−CEM, Vero) exerted by the test compounds was determined as described by Stuyver et al. by application of the CellTiter 96® AQueous One Solution Cell Proliferation Assay (Promega Corp., Madison, WI, USA). Briefly, the phenazine ethosulfate (PES)-coupled reduction of the tetrazolium salt 3-(4,5-dimethylthiazol-2-yl)-5-(3-carboxymethoxyphenyl)-2-(4-sulfophenyl)-2H-tetrazolium (MTS) to a purple, water-soluble formazan by living, undamaged cells was measured.

The nature of data set [2]: Cytotoxicity (CellTiter 96 AQueous One, MTS). It counts as cell-based. To be noted: human; PBM cells. On the procedure:
(§2) The cytotoxicity and human immunodeficiency virus type 1 (HIV-1) strain LAI replication assays were performed in freshly explanted primary human peripheral blood mononuclear cells (PBM cells) according to published procedures. The assays were conducted at least in triplicate and treated statistically (if possible). HIV-1LAI (= HIV-1BRU = LAV-1) was assayed in primary human peripheral blood lymphocyte (PBL) cells in the presence of a drug being evaluated. The parameter for antiviral activity was a reduction in reverse transcriptase (RT) activity in the cell supernatant after Triton X–100-mediated lysis of released virions, as measured using [5α-^3H]dTTP (5α-tritiated thymidine 5′-triphosphate) incorporation into poly(rA)•poly(dT) directed by the primed RNA template poly(rA)•oligo(dT). […] Cytotoxicity on PBL and the other cells (CCRF−CEM, Vero) exerted by the test compounds was determined as described by Stuyver et al. by application of the CellTiter 96® AQueous One Solution Cell Proliferation Assay (Promega Corp., Madison, WI, USA). Briefly, the phenazine ethosulfate (PES)-coupled reduction of the tetrazolium salt 3-(4,5-dimethylthiazol-2-yl)-5-(3-carboxymethoxyphenyl)-2-(4-sulfophenyl)-2H-tetrazolium (MTS) to a purple, water-soluble formazan by living, undamaged cells was measured.

A short description of data set [3]: Cytotoxicity (CellTiter 96 AQueous One, MTS). It counts as cell-based, human. To be noted: human; CCRF−CEM cells. On the procedure: as §1
Data set [4] is described as follows: Cytotoxicity (CellTiter 96 AQueous One, MTS). Conditions: African green monkey (Chlorocebus aethiops), Vero cells. Type of data set: cell-based, African green monkey (grivet) Chlorocebus aethiops. On the procedure: as §2

In general, EC50 refers to the midpoint of the concentration-response curve. In general, EC90 refers to the concentration needed for an effect of 90%. As usually defined, the CC50 is the concentration at which the toxic effect on the cells reaches its halfway point.

SMILES strings stand for the structures.

In the case of `Cc1cn([C@H]2C[C@H](N=[N+]=[N-])[C@@H](CO)O2)c(=O)[nH]c1=O` [AZT, 3′-azido-3′-deoxythymidine, reference compound], the EC50 in data set [1] (Human immunodeficiency virus 1, PBMC, primary human PBM cells, reverse transcriptase activity in supernatant, read-out: Anti-HIV-1LAI activity EC50) amounted to 0.0044 ± 0.0018 µM. For the same compound, the concentration for an effect of 90% (EC90) in data set [1] (Human immunodeficiency virus 1, PBMC, primary human PBM cells, reverse transcriptase activity in supernatant, read-out: Anti-HIV-1LAI activity EC90) is 0.031 ± 0.015 µM. For the same compound, in data set [1] (PBM cells), the “SI50, selectivity index CC50/EC50” value was >22,727. For the same compound, the CC50 in data set [2] was above 100 µM; in data set [3], 14.3 µM; in data set [4] it was 56 µM.
